Laboratory results published in patent publication US7879862B2, “Pyrazolo[1,5-alpha]pyrimidinyl derivatives useful as corticotropin-releasing factor (CRF) receptor antagonists” (SmithKline Beecham (Cork) Limited, priority 2004, dated 2011).
Like-named read-outs stand apart in the source and are kept apart here.

Molecular target: T1, human CRF receptors (Homo sapiens, UniProt P34998)
T1 construct: expressed in transfected cells
T1 sequence (P34998 24-415): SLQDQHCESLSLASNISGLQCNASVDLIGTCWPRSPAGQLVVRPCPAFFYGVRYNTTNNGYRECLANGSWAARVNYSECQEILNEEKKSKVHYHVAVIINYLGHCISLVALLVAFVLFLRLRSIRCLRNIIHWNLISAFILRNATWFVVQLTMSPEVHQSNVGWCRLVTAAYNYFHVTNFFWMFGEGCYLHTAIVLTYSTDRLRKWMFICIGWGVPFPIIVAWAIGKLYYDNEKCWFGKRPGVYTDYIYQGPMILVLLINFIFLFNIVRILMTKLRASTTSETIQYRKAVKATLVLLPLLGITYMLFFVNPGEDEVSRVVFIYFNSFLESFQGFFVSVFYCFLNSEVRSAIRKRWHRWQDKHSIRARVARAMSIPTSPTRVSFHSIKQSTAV
Assay: CRF receptor binding activity (radioligand displacement, Example 25)
Source text: The effectiveness of a compound as a CRF receptor antagonist may be determined by various assay methods. […] CRF receptor affinity may be determined by binding studies that measure the ability of a compound to inhibit the binding of a radiolabeled CRF (e.g., [^125I]tyrosine-CFR) to its receptor (e.g., receptors prepared from rat cerebral cortex membranes). The radioligand binding assay described by DeSouza et al. (supra, 1987) provides an assay for determining a compound's affinity for the CRF receptor.
[formula] where L=radioligand and KD=affinity of radioligand for receptor (Cheng and Prusoff, Biochem. Pharmacol. 22:3099, 1973).
By utilizing radiolabeled CRF ligands, the assay may be used to evaluate the binding activity of the compounds of the present invention with any CRF receptor subtype.
Briefly, the binding assay involves the displacement of a radiolabeled CRF ligand from the CRF receptor. More specifically, the binding assay is performed in 96-well assay plates using 1-10 μg cell membranes from cells stably transfected with human CRF receptors. […] The mixture is incubated for 2 hours at 22° C. followed by separation of the bound and free radioligand by rapid filtration over glass fiber filters. Following three washes, the filters are dried and radioactivity (Auger electrons from ^125I) is counted using a scintillation counter. All radioligand binding data may be analyzed using the non-linear least-squares curve-fitting programs Prism (GraphPad Software Inc) or XLfit (ID Business Solutions Ltd).

[1] = displacement of [125I] tyrosine-sauvagine from membranes of cells stably transfected with human CRF receptors, less than 0.10 μM (i.e., 100 nM), read-out: Ki (CRF receptor binding affinity)

Row | Compound | Ki [nM] | Ki [1] [nM]
1 | COc1ccc(-c2c(C)nn3c(NCc4nc(C)no4)cc(C)nc23)c(C)c1 [Example 11-6, [3-(4-Methoxy-2-methyl-phenyl)-2,5-dimethyl-pyrazolo[1,5-a]pyrimidin-7-yl]-(3-methyl-[1,2,4]oxadiazol-5-ylmethyl)-amine] | < 100 | 
2 | COc1ccc(-c2c(C)nn3c(N[C@H](C)Cc4nc(C5CC5)no4)cc(C)nc23)c(C)c1 [Example 11-9, [2-(3-Cyclopropyl-[1,2,4]oxadiazol-5-yl)-(R)-1-methyl-ethyl]-[3-(4-methoxy-2-methyl-phenyl)-2,5-dimethyl-pyrazolo[1,5-a]pyrimidin-7-yl]-amine] |  | < 100
3 | CCC[C@H](Nc1cc(C)nc2c(-c3ccc(OC)cc3C)c(C)nn12)c1nc(C)no1 [Example 13-1, [3-(4-Methoxy-2-methyl-phenyl)-2,5-dimethyl-pyrazolo[1,5-a]pyrimidin-7-yl]-[(S)-1-(3-methyl-[1,2,4]oxadiazol-5-yl)-butyl]-amine] |  | < 100
4 | CCC(Nc1cc(C)nc2c(-c3ccc(OC)cc3C)c(C)nn12)c1nc(C2CC2)no1 (stereo not shown) [Example 11-1, [1-(3-Cyclopropyl-[1,2,4]oxadiazol-5-yl)-propyl]-[3-(4-methoxy-2-methyl-phenyl)-2,5-dimethyl-pyrazolo[1,5-a]pyrimidin-7-yl]-amine] |  | < 100
5 | COc1ccc(-c2c(C)nn3c(NC(C)Cc4nc(C)no4)cc(C)nc23)c(C)c1 (stereo not shown) [Example 12-1, [3-(4-Methoxy-2-methyl-phenyl)-2,5-dimethyl-pyrazolo[1,5-a]pyrimidin-7-yl]-[1-methyl-2-(3-methyl-[1,2,4]oxadiazol-5-yl)-ethyl]-amine] | < 100 | 
6 | COc1ccc(-c2c(C)nn3c(NC(C)Cc4nc(C(F)(F)F)no4)cc(C)nc23)c(C)c1 (stereo not shown) [Example 13-3, [3-(4-Methoxy-2-methyl-phenyl)-2,5-dimethyl-pyrazolo[1,5-a]pyrimidin-7-yl]-[1-methyl-2-(3-trifluoromethyl-[1,2,4]oxadiazol-5-yl)-ethyl]-amine] |  | < 100
7 | CC[C@@H](Cc1noc(C)n1)Nc1cc(C)nc2c(-c3ccc(OC)cc3C)c(C)nn12 [Example 17-2, [3-(4-Methoxy-2-methyl-phenyl)-2,5-dimethyl-pyrazolo[1,5-a]pyrimidin-7-yl]-[(S)-1-(5-methyl-[1,2,4]oxadiazol-3-ylmethyl)-propyl]-amine] |  | < 100
8 | COc1ccc(-c2c(C)nn3c(N[C@H](C)Cc4nc(C(F)(F)F)no4)cc(C)nc23)c(Cl)c1 [Example 13-6, [3-(2-Chloro-4-methoxy-phenyl)-2,5-dimethyl-pyrazolo[1,5-a]pyrimidin-7-yl]-[(R)-1-methyl-2-(3-trifluoromethyl-[1,2,4]oxadiazol-5-yl)-ethyl]-amine] |  | < 100
9 | CCC(Cc1nc(C2CC2)no1)Nc1cc(C)nc2c(-c3ccc(OC)cc3OC)c(C)nn12 (stereo not shown) [Example 12-10, [1-(3-Cyclopropyl-[1,2,4]oxadiazol-5-ylmethyl)-propyl]-[3-(2,4-dimethoxy-phenyl)-2,5-dimethyl-pyrazolo[1,5-a]pyrimidin-7-yl]-amine] |  | < 100
10 | COc1ccc(-c2c(C)nn3c(N[C@@H](Cc4noc(C)n4)C(F)(F)F)cc(C)nc23)c(C)c1 [Example 19-1, [3-(4-Methoxy-2-methyl-phenyl)-2,5-dimethyl-pyrazolo[1,5-a]pyrimidin-7-yl]-[(S)-2,2,2-trifluoro-1-(5-methyl-[1,2,4]oxadiazol-3-ylmethyl)-ethyl]-amine] |  | < 100
11 | COc1ccc(-c2c(C)nn3c(NC(Cc4ccccc4)c4nc(C)no4)cc(C)nc23)c(C)c1 (stereo not shown) [Example 11-3, [3-(4-Methoxy-2-methyl-phenyl)-2,5-dimethyl-pyrazolo[1,5-a]pyrimidin-7-yl]-[1-(3-methyl-[1,2,4]oxadiazol-5-yl)-2-phenyl-ethyl]-amine] |  | < 100
12 | CCC(Nc1cc(C)nc2c(-c3ccc(OC)cc3C)c(C)nn12)c1nnc(C)o1 (stereo not shown) [Example 22-1, [3-(4-Methoxy-2-methyl-phenyl)-2,5-dimethyl-pyrazolo[1,5-a]pyrimidin-7-yl]-[1-(5-methyl-[1,3,4]oxadiazol-2-yl)-propyl]-amine] | < 100 | 
13 | CC[C@H](Nc1cc(C)nc2c(-c3ccc(OC)cc3Cl)c(C)nn12)c1nc(C)no1 [Example 14-4, [3-(2-Chloro-4-methoxy-phenyl)-2,5-dimethyl-pyrazolo[1,5-a]pyrimidin-7-yl]-[(S)-1-(3-methyl-[1,2,4]oxadiazol-5-yl)-propyl]-amine] |  | < 100
14 | COc1ccc(-c2c(C)nn3c(N4CCCCC4Cc4nc(C)no4)cc(C)nc23)c(C)c1 (stereo not shown) [Example 20-2, 3-(4-Methoxy-2-methyl-phenyl)-2,5-dimethyl-7-[2-(3-methyl-[1,2,4]oxadiazol-5-ylmethyl)-piperidin-1-yl]-pyrazolo[1,5-a]pyrimidine] |  | < 100
15 | COc1ccc(-c2c(C)nn3c(N[C@@H](Cc4nc(C)no4)C(F)(F)F)cc(C)nc23)c(OC)c1 [Example 13-8, [3-(2,4-Dimethoxy-phenyl)-2,5-dimethyl-pyrazolo[1,5-a]pyrimidin-7-yl]-[2,2,2-trifluoro-(S)-1-(3-methyl-[1,2,4]oxadiazol-5-ylmethyl)-ethyl]-amine] |  | < 100
16 | CCC(Nc1cc(C)nc2c(-c3ccc(Cl)cc3OC)c(C)nn12)c1nc(C)no1 (stereo not shown) [Example 24-2, [3-(4-Chloro-2-methoxy-phenyl)-2,5-dimethyl-pyrazolo[1,5-a]pyrimidin-7-yl]-[1-(3-methyl-[1,2,4]oxadiazol-5-yl)-propyl]-amine] |  | < 100
17 | COc1ccc(-c2c(C)nn3c(N(Cc4ccccc4)Cc4nc(C)no4)cc(C)nc23)c(C)c1 [Example 12-2, Benzyl-[3-(4-methoxy-2-methyl-phenyl)-2,5-dimethyl-pyrazolo[1,5-a]pyrimidin-7-yl]-(3-methyl-[1,2,4]oxadiazol-5-ylmethyl)-amine] |  | < 100
18 | CCC(Cc1nc(C)no1)Nc1cc(C)nc2c(-c3ccc(OC)cc3C)c(C)nn12 (stereo not shown) [Example 12-9, [3-(4-Methoxy-2-methyl-phenyl)-2,5-dimethyl-pyrazolo[1,5-a]pyrimidin-7-yl]-[1-(3-methyl-[1,2,4]oxadiazol-5-ylmethyl)-propyl]-amine] |  | < 100
19 | COc1ccc(-c2c(C)nn3c(N[C@@H](Cc4nc(C)no4)C(F)(F)F)cc(C)nc23)c(Cl)c1 [Example 13-4, [3-(2-Chloro-4-methoxy-phenyl)-2,5-dimethyl-pyrazolo[1,5-a]pyrimidin-7-yl]-[2,2,2-trifluoro-(S)-1-(3-methyl-[1,2,4]oxadiazol-5-ylmethyl)-ethyl]-amine] |  | < 100
20 | COc1ccc(-c2c(C)nn3c(N[C@H](C)Cc4noc(C)n4)cc(C)nc23)c(C)c1 [Example 17-1, [3-(4-Methoxy-2-methyl-phenyl)-2,5-dimethyl-pyrazolo[1,5-a]pyrimidin-7-yl]-[(R)-1-methyl-2-(5-methyl-[1,2,4]oxadiazol-3-yl)-ethyl]-amine] | < 100 | 
21 | COc1ccc(-c2c(C)nn3c(NC(C)Cc4nc(C(C)C)no4)cc(C)nc23)c(C)c1 (stereo not shown) [Example 12-5, [2-(3-Isopropyl-[1,2,4]oxadiazol-5-yl)-1-methyl-ethyl]-[3-(4-methoxy-2-methyl-phenyl)-2,5-dimethyl-pyrazolo[1,5-a]pyrimidin-7-yl]-amine] |  | < 100
22 | CCC(Nc1cc(C)nc2c(-c3ccc(Cl)cc3C)c(C)nn12)c1nc(C)no1 (stereo not shown) [Example 24-4, [3-(4-Chloro-2-methyl-phenyl)-2,5-dimethyl-pyrazolo[1,5-a]pyrimidin-7-yl]-[1-(3-methyl-[1,2,4]oxadiazol-5-yl)-propyl]-amine] |  | < 100
23 | COc1ccc(-c2c(C)nn3c(N4CCC[C@H]4Cc4nc(C)no4)cc(C)nc23)c(C)c1 [Example 14-3, 3-(4-Methoxy-2-methyl-phenyl)-2,5-dimethyl-7-[(S)-2-(3-methyl-[1,2,4]oxadiazol-5-ylmethyl)-pyrrolidin-1-yl]-pyrazolo[1,5-a]pyrimidine] |  | < 100
24 | COc1ccc(-c2c(C)nn3c(N[C@H](C)Cc4noc(C5CC5)n4)cc(C)nc23)c(C)c1 [Example 18-1, [(R)-2-(5-Cyclopropyl-[1,2,4]oxadiazol-3-yl)-1-methyl-ethyl]-[3-(4-methoxy-2-methyl-phenyl)-2,5-dimethyl-pyrazolo[1,5-a]pyrimidin-7-yl]-amine] |  | < 100
25 | CCC(Nc1cc(C)nc2c(-c3ccc(OC)cc3Cl)c(C)nn12)c1nc(C)no1 (stereo not shown) [Example 24-1, [3-(2-Chloro-4-methoxy-phenyl)-2,5-dimethyl-pyrazolo[1,5-a]pyrimidin-7-yl]-[1-(3-methyl-[1,2,4]oxadiazol-5-yl)-propyl]-amine] |  | < 100
